Where two headings read alike, the source gives them in different places. One block for each molecule: values may come before it.
Experiments:
[1] = system: Class 1 PI3K isoforms; conditions: read-out: selectivity towards the Class 1 PI3K isoforms; cited from earlier work
[2] = Tissue concentration partitioning (plasma, mesenteric lymph node, fat) after single oral dose in Maisine, LC-MS/MS; format: in vivo; conditions: mice, single oral 10 mg in Maisine; for Kp at 4 h: 4 hour time point; for concentration at 4 h: 4 hours post-dosing
Source text: Inhibitor compounds were synthesized to discover the underlying parameters needed in the development of chemical modifiers compatible with attachment to drug molecules to provide a drug having the physiochemical characteristics needed for uptake into the lymphatic system. […] This excipient vehicle contains long chain fatty acids and is used for hydrophobic compound solubilization.
Results were quantified using LC-MS/MS for plasma, mesenteric lymph node (LN) and mesenteric fat tissues.

[3] = Plasma and lymphatic tissue levels after single oral dose of ST-168 or PD901, LC-MS/MS (FIG. 3); format: in vivo; conditions: lymphatic tissue / plasma; mouse, single oral dose in ORA-Plus suspension, 4 hours post-administration; read-out: lymphatic/plasma ratio
Method: LC-MS/MS quantification of drug concentrations in mouse tissues over time following a single oral dose is shown. FIG. 3 contains block diagrams for formulations in ORA-Plus liquid particulate suspension: FIG. 3A compound ST-168 levels at 4 hours in plasma and lymphatic tissue versus the MEK inhibitor PD0325901 (henceforth referred to as PD901). FIG. 3B ST-168 time dependence in plasma and lymphatic tissue, and formulated in Maisine, FIG. 3C ST-168 time dependence in plasma and lymphatic tissue following 100 mg/kg dose.
In FIG. 3, LC-MS/MS quantification of drug concentrations in mouse tissues over time are shown following a single oral suspension dose of ST-168 delivered in ORA-Plus®. ORA-Plus is an aqueous-based vehicle (ORA-Plus Product Data Sheet available at Perrigo Company's website) containing a synergistic blend of suspending agents having a high degree of colloidal activity. The suspending agents form a structured, gel-like matrix which suspends particles and allow for little settling. ORA-Plus is buffered to a slightly acidic pH to help reduce degradation of medicinal agents through oxidation. The ORA-Plus contains purified water, microcrystalline cellulose, carboxymethylcellulose sodium, xanthan gum, carrageenan, calcium sulfate, trisodium phosphate, citric acid and sodium phosphate as buffers and dimethicone antifoam emulsion, preserved with methylparaben and potassium sorbate. […] Any compound delivered in ORA-Plus is distributed to the plasma and lymphatic system based upon the physiochemical properties of the drug. Thus, the formulation itself only serves to provide for a suspension of drug particulates and dissolution of drug will be based upon water solubility.
This is an important distinction showing that Compound ST-168 has lymphatic absorptive properties because ORA-Plus is not a long chain fatty acid like Maisine. […] Data presented in FIGS. 3A through 3D reveal that the mEG linker technology for chemical coupling with drugs produces solubility properties consistent with formulation and bioavailability required for drug-like pharmaceutical characteristics and improved lymphatic absorption.

[4] = target: MEK1 (Homo sapiens, UniProt Q02750); assay: In vitro inhibition of MEK1; format: biochemical
[5] = target: PI3Kα (Homo sapiens, UniProt P42336); assay: In vitro inhibition of PI3Kα; format: biochemical; conditions: Table 14; read-out: IC50 (nM) PI3Kα
[6] = target: PI3Kβ (Homo sapiens, UniProt P42338); assay: In vitro inhibition of PI3Kβ; format: biochemical; conditions: Table 14; read-out: IC50 (nM) PI3Kβ
[7] = target: PI3Kγ (Homo sapiens, UniProt P48736); assay: In vitro inhibition of PI3Kγ; format: biochemical; conditions: Table 14; read-out: IC50 (nM) PI3Kγ
[8] = target: PI3Kδ (Homo sapiens, UniProt O00329); assay: In vitro inhibition of PI3Kδ; format: biochemical; conditions: Table 14; read-out: IC50 (nM) PI3Kδ
[9] = mouse, mesenteric lymph node / plasma, read-out: lymph/plasma ratio

Chain of PI3Kδ (O00329 whole entry, species assumed): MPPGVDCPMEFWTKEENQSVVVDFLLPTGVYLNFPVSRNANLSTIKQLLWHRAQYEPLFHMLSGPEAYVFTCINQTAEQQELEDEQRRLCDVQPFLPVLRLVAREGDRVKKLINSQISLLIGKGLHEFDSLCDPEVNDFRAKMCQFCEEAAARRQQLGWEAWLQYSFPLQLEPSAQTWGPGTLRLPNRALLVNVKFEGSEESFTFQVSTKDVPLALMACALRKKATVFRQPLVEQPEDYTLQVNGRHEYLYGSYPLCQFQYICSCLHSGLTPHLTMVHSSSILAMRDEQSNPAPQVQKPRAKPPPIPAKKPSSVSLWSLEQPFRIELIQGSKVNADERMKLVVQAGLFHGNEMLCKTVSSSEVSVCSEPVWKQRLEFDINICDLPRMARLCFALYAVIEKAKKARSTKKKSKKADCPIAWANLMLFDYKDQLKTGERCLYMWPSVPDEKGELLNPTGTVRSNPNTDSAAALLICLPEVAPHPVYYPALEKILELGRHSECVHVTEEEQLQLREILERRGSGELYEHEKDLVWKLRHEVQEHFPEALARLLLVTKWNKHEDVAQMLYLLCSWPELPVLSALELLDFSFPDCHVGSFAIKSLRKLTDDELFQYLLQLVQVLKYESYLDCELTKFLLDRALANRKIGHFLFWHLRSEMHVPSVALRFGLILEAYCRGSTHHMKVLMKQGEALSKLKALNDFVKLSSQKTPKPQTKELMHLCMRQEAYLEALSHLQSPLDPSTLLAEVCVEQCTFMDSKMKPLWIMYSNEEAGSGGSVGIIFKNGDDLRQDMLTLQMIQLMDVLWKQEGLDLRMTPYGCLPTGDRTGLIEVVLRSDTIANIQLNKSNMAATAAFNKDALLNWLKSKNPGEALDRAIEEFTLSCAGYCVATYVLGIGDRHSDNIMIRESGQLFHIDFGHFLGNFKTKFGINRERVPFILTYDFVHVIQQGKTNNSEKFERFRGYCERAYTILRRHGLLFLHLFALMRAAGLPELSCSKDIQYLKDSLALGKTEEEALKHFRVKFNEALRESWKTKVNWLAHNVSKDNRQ
Chain of PI3Kδ (P27986 whole entry partner, species assumed): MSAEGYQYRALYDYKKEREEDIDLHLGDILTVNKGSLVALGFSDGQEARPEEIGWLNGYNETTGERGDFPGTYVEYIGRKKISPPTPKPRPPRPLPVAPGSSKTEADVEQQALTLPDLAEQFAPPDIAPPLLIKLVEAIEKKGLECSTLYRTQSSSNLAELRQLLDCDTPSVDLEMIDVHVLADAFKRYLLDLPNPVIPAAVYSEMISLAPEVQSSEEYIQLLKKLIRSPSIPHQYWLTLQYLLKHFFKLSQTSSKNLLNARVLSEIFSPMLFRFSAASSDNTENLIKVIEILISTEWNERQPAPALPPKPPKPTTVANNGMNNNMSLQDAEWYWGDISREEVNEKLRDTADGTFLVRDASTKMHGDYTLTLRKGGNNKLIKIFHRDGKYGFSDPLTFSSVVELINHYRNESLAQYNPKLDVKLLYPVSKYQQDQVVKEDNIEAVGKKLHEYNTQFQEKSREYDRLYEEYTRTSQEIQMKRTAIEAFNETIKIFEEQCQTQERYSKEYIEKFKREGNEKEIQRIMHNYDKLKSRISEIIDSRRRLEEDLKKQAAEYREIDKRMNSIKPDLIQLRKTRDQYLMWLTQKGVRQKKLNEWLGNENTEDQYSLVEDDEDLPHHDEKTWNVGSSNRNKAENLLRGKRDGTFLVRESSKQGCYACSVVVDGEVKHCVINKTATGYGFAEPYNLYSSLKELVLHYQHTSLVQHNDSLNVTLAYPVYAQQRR
Chain of PI3Kβ (P42338 whole entry, species assumed): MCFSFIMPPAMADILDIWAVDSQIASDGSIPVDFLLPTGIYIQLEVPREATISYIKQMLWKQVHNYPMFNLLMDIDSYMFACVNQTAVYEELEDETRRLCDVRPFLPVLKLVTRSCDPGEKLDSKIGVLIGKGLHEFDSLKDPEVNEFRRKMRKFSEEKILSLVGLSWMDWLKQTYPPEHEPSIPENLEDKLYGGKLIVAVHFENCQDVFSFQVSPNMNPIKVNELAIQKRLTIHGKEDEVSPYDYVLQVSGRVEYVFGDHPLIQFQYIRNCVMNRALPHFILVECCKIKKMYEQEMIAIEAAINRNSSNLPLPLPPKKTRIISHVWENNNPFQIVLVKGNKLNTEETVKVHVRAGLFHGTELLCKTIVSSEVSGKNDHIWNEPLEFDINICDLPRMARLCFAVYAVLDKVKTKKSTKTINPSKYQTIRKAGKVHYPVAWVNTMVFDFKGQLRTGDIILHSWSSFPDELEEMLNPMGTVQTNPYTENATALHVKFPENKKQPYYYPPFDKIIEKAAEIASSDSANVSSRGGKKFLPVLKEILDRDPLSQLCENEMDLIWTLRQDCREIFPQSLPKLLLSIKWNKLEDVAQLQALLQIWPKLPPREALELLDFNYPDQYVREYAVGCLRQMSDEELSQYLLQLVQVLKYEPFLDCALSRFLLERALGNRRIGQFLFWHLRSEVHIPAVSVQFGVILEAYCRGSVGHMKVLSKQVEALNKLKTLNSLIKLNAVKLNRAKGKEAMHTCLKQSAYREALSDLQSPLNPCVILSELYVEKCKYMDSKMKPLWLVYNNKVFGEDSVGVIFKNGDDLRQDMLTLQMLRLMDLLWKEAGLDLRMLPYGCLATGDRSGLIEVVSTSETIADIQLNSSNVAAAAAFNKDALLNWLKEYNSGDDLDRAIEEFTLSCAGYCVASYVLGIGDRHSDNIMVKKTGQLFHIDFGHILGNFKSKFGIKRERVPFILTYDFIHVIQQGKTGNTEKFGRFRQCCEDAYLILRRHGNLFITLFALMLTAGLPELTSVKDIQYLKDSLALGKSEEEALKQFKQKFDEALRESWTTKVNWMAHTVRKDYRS
Chain of PI3Kβ (P27986 whole entry partner, species assumed): as the sequence (P27986 whole entry partner, species assumed) above
Chain of PI3Kγ (P48736 whole entry, species assumed): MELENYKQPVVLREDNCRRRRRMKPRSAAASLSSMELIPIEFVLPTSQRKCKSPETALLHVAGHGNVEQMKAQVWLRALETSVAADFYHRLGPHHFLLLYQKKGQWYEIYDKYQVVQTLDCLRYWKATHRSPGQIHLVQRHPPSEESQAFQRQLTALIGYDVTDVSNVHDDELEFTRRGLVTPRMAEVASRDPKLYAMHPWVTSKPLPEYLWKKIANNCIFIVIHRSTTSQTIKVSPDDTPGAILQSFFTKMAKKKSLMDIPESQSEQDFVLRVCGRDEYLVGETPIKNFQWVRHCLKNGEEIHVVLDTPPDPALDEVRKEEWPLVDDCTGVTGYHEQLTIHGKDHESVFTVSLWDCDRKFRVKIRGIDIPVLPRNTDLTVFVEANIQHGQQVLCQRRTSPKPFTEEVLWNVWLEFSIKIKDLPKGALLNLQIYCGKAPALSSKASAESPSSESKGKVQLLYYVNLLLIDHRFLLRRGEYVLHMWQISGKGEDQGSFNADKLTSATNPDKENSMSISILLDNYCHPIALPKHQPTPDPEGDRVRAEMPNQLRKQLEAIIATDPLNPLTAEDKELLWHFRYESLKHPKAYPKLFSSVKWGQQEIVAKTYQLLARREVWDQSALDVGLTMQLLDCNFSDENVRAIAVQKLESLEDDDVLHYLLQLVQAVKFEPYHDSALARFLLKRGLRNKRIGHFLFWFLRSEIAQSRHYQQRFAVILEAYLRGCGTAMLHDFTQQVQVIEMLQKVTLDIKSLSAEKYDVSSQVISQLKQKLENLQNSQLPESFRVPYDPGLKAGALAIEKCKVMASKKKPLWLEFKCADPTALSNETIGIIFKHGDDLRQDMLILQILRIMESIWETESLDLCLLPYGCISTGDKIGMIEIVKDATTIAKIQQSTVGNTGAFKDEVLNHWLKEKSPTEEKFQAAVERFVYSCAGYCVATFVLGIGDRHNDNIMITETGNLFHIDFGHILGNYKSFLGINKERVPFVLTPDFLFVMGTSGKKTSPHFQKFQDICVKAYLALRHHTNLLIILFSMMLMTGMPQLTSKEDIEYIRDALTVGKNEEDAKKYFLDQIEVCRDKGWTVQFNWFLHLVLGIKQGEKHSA
Chain of PI3Kα (P42336 whole entry, species assumed): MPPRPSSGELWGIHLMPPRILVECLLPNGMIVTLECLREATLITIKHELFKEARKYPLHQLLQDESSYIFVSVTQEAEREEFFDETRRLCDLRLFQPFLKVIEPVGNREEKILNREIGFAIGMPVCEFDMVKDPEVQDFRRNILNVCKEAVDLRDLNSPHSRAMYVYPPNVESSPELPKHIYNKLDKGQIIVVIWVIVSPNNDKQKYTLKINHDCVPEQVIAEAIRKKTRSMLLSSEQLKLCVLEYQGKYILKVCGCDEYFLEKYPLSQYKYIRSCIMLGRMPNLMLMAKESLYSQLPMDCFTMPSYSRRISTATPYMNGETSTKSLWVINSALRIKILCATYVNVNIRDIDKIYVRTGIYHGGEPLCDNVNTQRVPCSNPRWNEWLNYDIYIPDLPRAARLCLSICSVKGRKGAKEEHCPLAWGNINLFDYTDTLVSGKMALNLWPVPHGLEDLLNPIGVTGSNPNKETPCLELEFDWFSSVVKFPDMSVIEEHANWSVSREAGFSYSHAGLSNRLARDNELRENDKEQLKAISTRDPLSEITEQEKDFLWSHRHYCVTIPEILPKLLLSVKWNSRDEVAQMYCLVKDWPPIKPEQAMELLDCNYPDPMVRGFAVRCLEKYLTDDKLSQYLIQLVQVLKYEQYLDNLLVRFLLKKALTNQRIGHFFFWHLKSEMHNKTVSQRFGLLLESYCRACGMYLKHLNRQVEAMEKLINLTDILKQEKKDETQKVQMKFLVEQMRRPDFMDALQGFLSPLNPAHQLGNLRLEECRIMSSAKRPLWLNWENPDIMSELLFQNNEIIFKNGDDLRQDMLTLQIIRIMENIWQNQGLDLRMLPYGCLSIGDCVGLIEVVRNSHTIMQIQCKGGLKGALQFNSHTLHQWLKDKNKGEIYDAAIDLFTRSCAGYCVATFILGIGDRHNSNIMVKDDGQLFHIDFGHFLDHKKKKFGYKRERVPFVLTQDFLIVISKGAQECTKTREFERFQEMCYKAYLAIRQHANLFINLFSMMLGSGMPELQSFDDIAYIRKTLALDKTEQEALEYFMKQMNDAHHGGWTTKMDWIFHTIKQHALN
Chain of PI3Kα (P27986 whole entry partner, species assumed): as the sequence (P27986 whole entry partner, species assumed) above

Structure (SMILES): COc1ccc(-c2ccc3c(N4CCOC[C@H]4C)nc(N4CCOC[C@H]4C)nc3n2)cc1CO [AZD 8055]
IC50 [1]: > 1000 nM

Structure (SMILES): O=C(NCCOCCOCCOCCNC(=O)c1ccccc1)c1ccccc1 [Compound 1]
Kp at 0.5 h ([2]; mouse, mesenteric lymph node / plasma, 0.5 hours, read-out: lymph/plasma ratio): ~0.6
Kp at 4 h [2, 9]: ~1
concentration at 4 h ([2]; mouse, mesenteric lymph node, read-out: lymphatic concentration): ~85 ng/mL
concentration at 4 h ([2]; mouse, plasma, read-out: plasma concentration): ~95 ng/mL

Structure (SMILES): O=C(NCCCCCCCCCCCNC(=O)c1ccccc1)c1ccccc1 [Compound 2]
concentrations in tissues tested, compared to Compound 1 ([2]; plasma, mesenteric lymph node, fat): much lower concentrations in all tissues tested
Kp ([2]; mouse, mesenteric lymph node / plasma, between time points 0.5, 2, and 4 hours, read-out: lymph/plasma ratios): 3 to 5

Structure (SMILES): O=C(NOC[C@H](O)CO)c1ccc(F)c(F)c1Nc1ccc(I)cc1F [Compound 901, reference compound]
Kp at 4 h [3]: ~1.2

Further lines, results first:

Kp at 4 h [2, 9]: ~5
Structure (SMILES): O=C(NCCOCCOCCOCCNC(=O)c1cccc2ccccc12)c1cccc2ccccc12 [Compound 3]

Kp at 4 h [2, 9]: ~6
Structure (SMILES): O=C(NCCCCCCCCCCCNC(=O)c1cccc2ccccc12)c1cccc2ccccc12 [Compound 4]

IC50 [4]: 72.3 ± 1.9 nM
Structure (SMILES): O=C(O)CCOCCOCCOCCONC(=O)c1ccc(F)c(F)c1Nc1ccc(I)cc1F [MV6-8]

IC50 [5]: 10.3 ± 1 nM
IC50 [6]: 404 ± 63 nM
IC50 [7]: 55.2 ± 11.5 nM
IC50 [8]: 11.7 ± 2.2 nM
Structure (SMILES): CC(=O)N(C)CCNc1nc(N2CCOCC2)nc(-n2c(C(F)F)nc3ccccc32)n1 [ST-5-31]

IC50 [5]: 3.74 ± 1 nM
IC50 [6]: 74 ± 5.7 nM
IC50 [7]: 14.6 ± 1.4 nM
IC50 [8]: 9.9 ± 0.4 nM
Structure (SMILES): OCCN(CCO)c1nc(N2CCOCC2)nc(-n2c(C(F)F)nc3ccccc32)n1 [ST-5-32]
